Results from US20210161857A1, “COMPOSITION AND METHOD FOR SUPPRESSING INCREASE IN BLOOD GLUCOSE LEVEL” (SUNTORY HOLDINGS LIMITED, priority 2018, published 2021).

What was measured:
[1] = Glucose tolerance test after single intake of test substance; assay type: in vivo, Mice (C57BL/6J); settings: single oral intake 30 or 60 mg/kg, 30 min before oral glucose 1 g/kg; vs control group, at any time
Excerpt: Evaluation of Action of Isoxanthohumol to Suppress an Increase in Blood Glucose Level by Single Intake
The effect of single intake of isoxanthohumol on the increase in blood glucose level after glucose intake was examined by the following procedure.
Xanthohumol and isoxanthohumol were the standard samples (purity of 95% or higher) obtained in Preparation Example 1. The “Dosage” in the table, indicates the dosage (mg) of the test substance per kg body weight. A dosing solution containing a mixture of the test substance and a solvent was used to administer the test substance. The solvent was a 0.5 wt % sodium carboxymethylcellulose (CMC) aqueous solution. The volume of the dosing solution was 10 mL/kg A 50 wt % glucose aqueous solution was used for glucose intake.
(§1) Mice (C57BL/6J, male, 7 weeks of age, CLEA Japan, Inc.) were purchased, and they were quarantined and acclimatized for one week. […] The selected animals were divided into groups (n=9 in each group) in the group structure shown in Table, 1 by the stratified continuous randomization method based on body weight at the end of the acclimatization period.
After grouping, each group was oral administered with the test substance as described in Table 1. […] Soon after blood drawing, the blood glucose level was measured using Glutest Neo Sensor (Sanwa Kagaku Kenkyusho Co., Ltd.). […]

[2] = high temperature of 100° C.; cited from earlier work
[3] = Glucose tolerance test after continuous intake (three weeks) in high-fat diet mouse model; assay type: in vivo, Mice (C57BL/6J); settings: high fat diet mice, oral glucose 1 g/kg, vs high fat diet group
Excerpt: Evaluation of Action of Isoxanthohumol to Suppress an Increase in Blood Glucose Level by Continuous Intake
The effect of continuous intake of isoxanthohumol on the increase in blood glucose level after glucose intake was studied by the following procedure using a high-fat diet mouse model.
In the table, “Regular diet” is control diet “D12450J” (Research Diets), and “60 kcal % High-fat diet” is very high-fat diet “D12492” (Research Diets); Xanthohumol and isoxanthohumol were the standard samples (purity of 95% or higher) obtained in Preparation Example 1. The “Dosage” in the table indicates the dosage (mg) of the test substance per day per kg body weight. As in Reference Example 1, a dosing solution containing a mixture of the test substance and a solvent (a 0.5 wt % CMC aqueous solution) was used to administer the test substance. The volume of the dosing solution was 10 ml/kg. The amount of the test substance and the volume of the solution were calculated based on the latest body weight on the administration day of the test substance. A 50 wt % glucose aqueous solution was used for glucose intake.
as §1, with “japan,” for “Japan,”, “(n=8” for “(n=9”, “Table 2” for “Table, 1”, “period. They were fed with free access to specific basic feed and water. The test substance was orally administered once a day for three weeks.” for “period.”
After fasting for six hours on the last administration day of the test substance, each group was subjected to oral glucose intake to an amount of 1 g per 1 kg body weight, and blood was drawn from the tail vein over time. Soon after blood drawing, the blood glucose level was measured using Glutest Neo Sensor (Sanwa Kagaku Kenkyusho Co., Ltd.).
Statistical processing was performed using Microsoft Office Excel 2003. A significant difference, was tested between the regular diet group and the high fat diet group by Student's t-test (significant level: 1% (p<0.01)). A significant difference was tested between the high fat diet group and each group excluding the regular diet group by Dunnett's multiple comparison test (significant level: 5% (p<0.05)).

[4] = high-fat diet mouse model, cited from earlier work
[5] = 10 mg/L mixed in drinking water, long-term breeding, high-fat diet mouse model; cited from earlier work
3T3-L1 adipose cells = settings: cited from earlier work
[6] = 30 mg/kg/day orally once a day for three weeks
[7] = 60 mg/kg/day orally once a day for three weeks

Row | Structure (SMILES) | action to suppress an increase in blood glucose level [1] | thermal stability [2] | action to suppress an increase in blood glucose level [3, 6] | action to suppress an increase in blood glucose level [3, 7] | fasting blood glucose level ([4]; continuous administration 60 mg/kg/day) | fasting blood insulin level ([4]; continuous administration 30 or 60 mg/kg/day) | blood glucose level [5] | secretion of adiponectin (3T3-L1 adipose cells)
1 | COc1cc(O)c(CC=C(C)C)c2c1C(=O)CC(c1ccc(O)cc1)O2 (centres unmarked) [isoxanthohumol] | did not show a significant action to suppress an increase in blood glucose level | stable | tendency for a suppressed increase in blood glucose level | significant action to suppress an increase in blood glucose level |  |  |  | 
2 | COc1cc(O)c(CC=C(C)C)c(O)c1C(=O)/C=C/c1ccc(O)cc1 [xanthohumol] | did not show a significant action to suppress an increase in blood glucose level |  | No significant action to suppress an increase in blood glucose level | No significant action to suppress an increase in blood glucose level | decreases the fasting blood glucose level | decreases the fasting blood insulin level | decrease in blood glucose level | promote secretion of adiponectin
